Measurements from patent US8609650B2, “Bridged bicyclic aryl and bridged bicyclic heteroaryl substituted triazoles useful as Axl inhibitors” (Rigel Pharmaceuticals, Inc., priority 2006, dated 2013).

Molecular target: T1, Axl (Homo sapiens, UniProt P30530)
T1 construct: endogenous in cells; host or cells: HeLa cells
T1 sequence (P30530 26-894): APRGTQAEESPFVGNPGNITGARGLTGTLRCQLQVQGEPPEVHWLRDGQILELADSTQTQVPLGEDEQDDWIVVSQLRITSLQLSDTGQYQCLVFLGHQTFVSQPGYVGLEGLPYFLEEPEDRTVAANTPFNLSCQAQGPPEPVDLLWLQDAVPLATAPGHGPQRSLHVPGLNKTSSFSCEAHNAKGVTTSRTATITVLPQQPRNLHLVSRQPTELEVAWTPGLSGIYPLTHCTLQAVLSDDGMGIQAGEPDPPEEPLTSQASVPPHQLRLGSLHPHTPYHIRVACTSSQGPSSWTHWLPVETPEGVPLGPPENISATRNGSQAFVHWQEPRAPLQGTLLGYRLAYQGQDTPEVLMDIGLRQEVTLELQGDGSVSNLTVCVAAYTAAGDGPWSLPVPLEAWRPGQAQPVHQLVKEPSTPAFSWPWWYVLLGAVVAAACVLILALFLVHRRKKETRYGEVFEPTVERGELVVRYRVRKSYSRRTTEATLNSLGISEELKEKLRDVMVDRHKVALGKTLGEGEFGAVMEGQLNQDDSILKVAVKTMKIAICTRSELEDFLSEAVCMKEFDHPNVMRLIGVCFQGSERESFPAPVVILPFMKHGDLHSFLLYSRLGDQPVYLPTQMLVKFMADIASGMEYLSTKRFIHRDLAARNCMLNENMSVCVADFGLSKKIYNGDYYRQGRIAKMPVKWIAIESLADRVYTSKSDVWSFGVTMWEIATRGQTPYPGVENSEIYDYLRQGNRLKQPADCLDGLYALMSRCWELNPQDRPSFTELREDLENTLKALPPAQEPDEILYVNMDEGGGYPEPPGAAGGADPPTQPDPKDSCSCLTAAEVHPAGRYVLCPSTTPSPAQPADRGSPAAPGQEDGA
Experiment: Phospho-Akt In-Cell Western Assay (ability to inhibit Axl activity)
Assay type: cell-based
Conditions: Hela cells, stimulated by Axl-antibody cross-linking, phospho-Akt chemiluminescence normalized to relative cell number
Experimental: The compounds of the invention were tested in the following assay for their ability to inhibit Axl activity.
Phospho-Akt In-Cell Western Assay
• Cell culture plate: 96 well assay plate (Corning 3610), white, clear bottom, tissue-culture treated. • Cells: Hela cells. • Starvation medium: For Axl stimulation: 0.5% FCS (fetal calf serum) in DMEM, plus Axl/Fc (extracellular domain of AXL fused to immunoglobulin Fc region) (R&D, 154-AL) 500 ng/mL. • For EGF (epidermal growth factor) stimulation: 0.5% FCS in DMEM (Dulbecco's modified Eagles medium). • Poly-L-Lysine 0.01% solution (the working solution): 10 μg/ml, dilute In PBS (phosphate buffered saline). • Axl antibody cross-linking: • 1st: Mouse anti-Axl (R&D, MAB154). • 2nd: Biotin-SP-conjugated AffiniPure goat anti-mouse IgG (H+L) (Jackson ImmunoResearch #115-065-003). • Fixing buffer: 4% formaldehyde in PBS. • Wash buffer: 0.1% TritonX-100 in PBS. • Quenching buffer: 3% H2O2, 0.1% Azide in wash buffer, Azide and hydrogen peroxide (H2O2) are added fresh. • Blocking buffer: 5% BSA in TBST (tris buffered saline plus 0.1% Tween 20). • Primary antibody: Rabbit anti-human Phospho-Akt antibody (Cell Signaling 9271): 1×250 diluted in blocking buffer. • Secondary antibody: HRP (horse radish peroxidase)-conjugated Goat anti-Rabbit secondary, stock solution: Jackson ImmunoResearch (Goat anti-Rabbit HRP, #111-035-144) 1:1 diluted in glycerol, store at −20° C. The working solution: 1×2000 dilution of stock in blocking buffer. • Chemiluminescent working solution (Pierce, 37030): SuperSignal ELISA (enzyme linked immunosorbant assay) Pico Chemiluminescent substrate. • Crystal Violet solution: Stock: 2.5% Crystal violet in methanol, filtered and kept at ambient temperature. The working solution: dilute the stock 1:20 with PBS immediately before use. • 10% SDS: working solution: 5% SDS (sodium dodecylsulfate), diluted in PBS Methods: Day 1:
A 96 well TC (tissue culture treated) plate was coated with 10 μg/mL poly-L-Lysine at 37° C. for 30 min, washed twice with PBS, and air-dried for 5 minutes before cells were added. Hela cells were seeded at 10,000 cells/well and the cells were starved in 100 μL starvation medium containing Axl/Fc for 24 hrs.
The cells were pre-treated with test compounds by adding 100 μL of 2× test compound to the starvation medium on the cells. The cells were incubated at 37° C. for 1 hr before stimulation.
The cells were stimulated by Axl-antibody cross-linking as follows: A 5×1st/2nd Axl antibody mixture was made (37.5 μg/mL 1st/100 μg/mL 2nd) in starvation medium and nutated at 4° C. with thorough mixing for 1-2 hours for clustering. The resulting mix was warmed to 37° C. 50 μL of 5× Axl 1st/2nd of antibody cluster was added to the cells and the cells were incubated at 37° C. for 5 min.
After 5 minutes stimulation, the plate was flicked to remove medium and the plate was tapped onto paper towels. Formaldehyde (4.0% in PBS, 100 μL) was added to fix the cells and the cells were incubated at ambient temperature for 20 min without shaking.
The cells were washed with a plate washer buffer to remove the formaldehyde solution. The plate was flicked to removed excess wash buffer and tapped onto paper towels. Quenching buffer (100 μL) was added to each well and the cells were incubated at ambient temperature for 20 minutes without shaking.
The cells were washed with a plate washer buffer to remove the quenching buffer. Blocking buffer (100 μL) was added and the cells were incubated at ambient temperature for at least an hour with gentle shaking.
The cells were washed with a plate washer buffer and diluted primary antibody (50 μL) was added to each well (blocking buffer was added to the negative control wells instead). The plates were incubated overnight at 4° C. with gentle shaking.
The wash buffer was removed, diluted secondary antibody (100 μL) was added, and the cells were incubated at ambient temperature for 1 hour with gentle shaking. […]

Row | SMILES | IC50
1 | Nc1nc(Nc2ccc(N3CCNC(C(=O)O)C3)c(F)c2)nn1-c1cc(-c2ccccc2)c2c(n1)C1CCN2CC1 (centres unmarked) [Compound 33, 1-(1,4-ethano-8-phenyl-1,2,3,4-tetrahydro-1,5-naphthyridin-6-yl)-N^3-(3-fluoro-4-(3-carboxypiperazin-1-yl)phenyl)-1H-1,2,4-triazole-3,5-diamine] | 1000 to 10000 nM
2 | COc1cc2ncnc(-n3nc(Nc4ccc5c(c4)CC4CCC(C5)C4N4CCCC4)nc3N)c2cc1OC (centres unmarked) [Compound 16, 1-(6,7-dimethoxyquinazolin-4-yl)-N^3-(7-pyrrolidin-1-yl-6,8-ethano-6,7,8,9-tetrahydro-5H-benzo[7]annulene-3-yl)-1H-1,2,4-triazole-3,5-diamine] | < 1000 nM
3 | CN1CCN(c2ccc(Nc3nc(N)n(-c4ccc5c(n4)[C@@H]4C[C@H](C5)C4(C)C)n3)cc2)CC1 [Compound 38, 1-(7,7-dimethyl-(6R,8R)6,8-methano-5,6,7,8-tetrahydroquinoline-2-yl)-N^3-(4-(4-methylpiperazin-1-yl)phenyl)-1H-1,2,4-triazole-3,5-diamine] | < 1000 nM
4 | Nc1nc(Nc2ccc(N3CCN(C4CCCCC4)CC3)c(F)c2)nn1-c1cc(-c2ccccc2)c2c(n1)C1CCC2C1 (centres unmarked) [Compound 44, 1-(5,8-methano-4-phenyl-5,6,7,8-tetrahydroquinoline-2-yl)-N^3-(3-fluoro-4-(4-cyclohexylpiperazin-1-yl)phenyl)-1H-1,2,4-triazole-3,5-diamine] | 1000 to 10000 nM
5 | Cc1csc2c(-n3nc(Nc4cnc5c(c4)C4CCC(C5)N4C)nc3N)nc(Cl)nc12 (centres unmarked) [Compound 24, 1-(2-chloro-7-methylthieno[3,2-d]pyrimidin-4-yl)-N^3-(5,7-ethano-5,7,8-trihydro-6-methyl-1,6-naphthyridin-3-yl)-1H-1,2,4-triazole-3,5-diamine] | < 1000 nM
6 | Nc1nc(Nc2ccc(N3CCC(N4CCCC4)CC3)c(F)c2)nn1-c1cc(-c2ccsc2)c2c(n1)C1CCN2CC1 [Compound 64, 1-(1,4-ethano-8-thiophen-3-yl-1,2,3,4-tetrahydro-1,5-naphthyridin-6-yl)-N^3-(3-fluoro-4-(4-(pyrrolidin-1-yl)piperidin-1-yl)phenyl)-1H-1,2,4-triazole-3,5-diamine] | < 1000 nM
7 | Cc1csc2c(-n3nc(Nc4cnc5c(c4)CN4CCC5CC4)nc3N)ncnc12 [Compound 27, 1-(7-methylthieno[3,2-d]pyrimidin-4-yl)-N^3-(6,9-ethano-6,7,8,9-tetrahydro-5H-pyrido[3,2-c]azepin-3-yl)-1H-1,2,4-triazole-3,5-diamine] | < 1000 nM
8 | CCSc1nc2c(c(-n3nc(Nc4ccc(OCCN5CCCC5)cc4)nc3N)n1)C1CCC2C1 (centres unmarked) [Compound 2, 1-(2-ethylthio-5,8-methano-5,6,7,8-tetrahydroquinazolin-4-yl)-N^3-(4-(2-(pyrrolidin-1-yl)ethoxy)phenyl)-1H-1,2,4-triazole-3,5-diamine] | < 1000 nM
9 | CN1CCC(c2ccc(Nc3nc(N)n(-c4ncc5c(n4)C4CCC5C4)n3)cc2)CC1 (centres unmarked) [Compound 12, N^3-(4-(1-methylpiperidin-4-yl)phenyl)-1-(5,8-methano-5,6,7,8-tetrahydroquinazolin-2-yl)-1H-1,2,4-triazole-3,5-diamine] | > 20000 nM
10 | Nc1nc(Nc2ccc3c(c2)CCC(N2CCCC2)CC3)nn1-c1cc(-c2cccs2)c2c(n1)C1CCC2C1 (centres unmarked) [Compound 48, 1-(5,8-methano-4-thiophen-2-yl-5,6,7,8-tetrahydroquinoline-2-yl)-N^3-(7-pyrrolidin-1-yl-6,7,8,9-tetrahydro-5H-benzo[7]annulene-3-yl)-1H-1,2,4-triazole-3,5-diamine] | < 1000 nM
11 | Nc1nc(Nc2ccc(N3CCN(CC4CC4)[C@H](C(=O)O)C3)c(F)c2)nn1-c1cc(-c2ccccc2)c2c(n1)C1CCN2CC1 [Compound 66, 1-(1,4-ethano-8-phenyl-1,2,3,4-tetrahydro-1,5-naphthyridin-6-yl)-N^3-(3-fluoro-4-((3S)-3-carboxy-4-cyclopropylmethylpiperazin-1-yl)phenyl)-1H-1,2,4-triazole-3,5-diamine] | < 1000 nM
